# From patent US20230255970A1, “COMPOSITIONS AND METHODS FOR TREATING PROLIFERATIVE DISEASES” (The Broad Institute, Inc., priority 2020, published 2023)
# Read-outs that look alike come from different tables or passages of the source.
# Tests used:
# YAP1 = test: Western blot of phospho-YAP1 (S127) in H9 cells; assay type: cell-based, human; conditions: 24 hrs
# Procedure: H9 hPSCs (WiCell) were maintained on vitronectin (Thermo Fisher)-coated plates in Essential 8 (E8) medium. The cells were routinely passaged using 0.5 mM EDTA and treated with 5 μM Y-27632 dihydrochloride (Tocris) on the first day. For testing the effects of the small molecules, H9 hPSCs were seeded at 50K cells/cm^2 on vitronectin-coated plates in E8 medium supplemented with 5 μM Y-27632 dihydrochloride (day 0). On day 1, the medium was switched to E8 medium. On day 2, the medium was switched to E8 medium supplemented with the small molecules. Following overnight incubation, the cells were collected for subsequent analysis on day 3.
# YAP1-related Western blotting: The cells were lysed in RIPA buffer (Pierce) supplemented with Halt Protease inhibitor cocktail and Halt Phosphatase inhibitor cocktail. Cells were lysed in hot Tris-SDS buffer (pH 7.6) and boiled for 5 minutes at 95° C. The protein concentration of each sample was quantified using the Pierce BCA protein assay (Thermo Fisher). The proteins were resolved by SDS-PAGE and transferred to PVDF membranes using the Trans-Blot Turbo Transfer system (Bio-Rad). The membranes were blocked in 5% non-fat milk in TBS-T for up to 1 hour at room temperature and incubated with primary antibodies in 5% bovine serum albumin in TBS-T overnight at 4° C. […]
# KP230 cells [1] = test: RNA sequencing and gene set enrichment analysis in KP230 cells; assay type: cell-based, mouse; conditions: 10 μM daily for 72 hours
# Source text: (§1) YAP1 cell culture and treatments: Eisinger lab: Murine KP230 cells, a Yap1-dependent cancer cell line, were derived from a tumor from the KP mouse model (Kras^G12/D; Trp53^f/fl), as described in Eisinger-Mathason, T. S. K. et al., Proc. Natl. Acad. Sci. U.S.A 112 (2015): E3402-11, which is hereby incorporated by reference in its entirety. STS-109 UPS cells were derived from a human UPS tumor and validated by Rebecca Gladdy, MD (Sinai Health System, Toronto, Ontario, Canada). TC32 cells were a gift from Patrick Grohar, MD, PhD (Children's Hospital of Philadelphia). HT-1080, HCT-116, and HEK293T cells were purchased from ATCC. KP230, HT-1080, and HEK-293T cells were grown in DMEM with 10% FBS, 1% L-glutamine, and 1% penicillin/streptomycin (P/S). STS-109 cells were cultured in DMEM with 20% FBS, 1% L-glutamine, and 1% P/S. TC32 cells were grown in RPMI with 10% FBS, 1% L-glutamine, and 1% P/S. HCT-116 cells were cultured in McCoy's 5A medium with 10% FBS and 1% P/S. All cells were confirmed to be negative for mycoplasma contamination and were maintained in an incubator at 37C with 5% CO2. For experimental purposes, cells were cultured for up to 20 passages before being discarded, and were grown to approximately 50% confluence to circumvent the effects of high cell density on Yap1 expression and activity. […]
# TEAD-YAP interaction = conditions: HEK-TIYL cells, PubChem; cited from earlier work
# [2] = test system: HT-1080 fibrosarcoma cells; test: Proliferation assay, HT-1080 cells; assay type: cell-based, human; conditions: 10 μM daily for 72 hours
# Source text: as §1, with “CO2.” for “CO2. For experimental purposes, cells were cultured for up to 20 passages before being discarded, and were grown to approximately 50% confluence to circumvent the effects of high cell density on Yap1 expression and activity.”
# (§2) NB4A treatment: Cells were treated with 10 μM of each inhibitor or an equivalent volume of DMSO every 24 hours for 3-8 days, and counted with a hemocytometer with trypan blue exclusion daily (KP230, HT-1080, TC32, HCT-116), or every 2 days (STS-109).
# [3] = test system: YAP1 overexpression in U2OS cells; test: Cell Painting morphological profile matching to YAP1/TAZ overexpression signature; assay type: cell-based, human
# Summary of the method: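 Morphological profiles from Cell Painting (six fluorescent labels) in a single cell line at one time point, standardized plate-wise against control mean and SD, replicate profiles averaged feature-wise. Gene and compound signatures scored by Pearson correlation, large positive or negative correlations counted as matches.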
# KP230 cells [4] = test: Proliferation assay, KP230 cells; assay type: cell-based, mouse; conditions: 10 μM daily for 72 hours
# Source text: YAP1 cell culture and treatments: Eisinger lab: Murine KP230 cells, a Yap1-dependent cancer cell line, were derived from a tumor from the KP mouse model (Kras^G12/D; Trp53^f/fl), as described in Eisinger-Mathason, T. S. K. et al., Proc. Natl. Acad. Sci. U.S.A 112 (2015): E3402-11, which is hereby incorporated by reference in its entirety. STS-109 UPS cells were derived from a human UPS tumor and validated by Rebecca Gladdy, MD (Sinai Health System, Toronto, Ontario, Canada). TC32 cells were a gift from Patrick Grohar, MD, PhD (Children's Hospital of Philadelphia). HT-1080, HCT-116, and HEK293T cells were purchased from ATCC. KP230, HT-1080, and HEK-293T cells were grown in DMEM with 10% FBS, 1% L-glutamine, and 1% penicillin/streptomycin (P/S). STS-109 cells were cultured in DMEM with 20% FBS, 1% L-glutamine, and 1% P/S. TC32 cells were grown in RPMI with 10% FBS, 1% L-glutamine, and 1% P/S. HCT-116 cells were cultured in McCoy's 5A medium with 10% FBS and 1% P/S. All cells were confirmed to be negative for mycoplasma contamination and were maintained in an incubator at 37C with 5% CO2. For experimental purposes, cells were cultured for up to 20 passages before being discarded, and were grown to approximately 50% confluence to circumvent the effects of high cell density on Yap1 expression and activity. All cell lines in the Eisinger laboratory were treated with 10 μM of each inhibitor or an equivalent volume of DMSO every 24 hours for 3 days, except for STS-109 cells, which were treated daily for 8 days.
# as §2
# YAP1 mRNA = conditions: cited from earlier work
structure (smiles),measurement,setting,value
"c1ccc(CNc2ncnc3ccccc23)cc1 [BRD-K43796186, N-benzylquinazolin-4-amine]",YAP1 S127 phosphorylation,YAP1,decreased YAP1 S127 phosphorylation
same,pathways down-regulated (GSEA),KP230 cells [1],"epithelial-mesenchymal transition, angiogenesis, and glycolysis"
same,pathways up-regulated (GSEA),KP230 cells [1],interferon alpha and gamma responses
same,inhibitors of TEAD-YAP interaction,TEAD-YAP interaction,showed activity
same,proliferation,[2],did not affect the proliferation
same,Cell Painting profile correlation with YAP1 overexpression,[3],0.46
same,Corr. to YAP1 cluster,"[3]; Pearson correlation of Cell Painting signatures, U2OS cells",0.4622
same,proliferation,KP230 cells [4],inhibited the proliferation
same,YAP1 mRNA z-score,"YAP1 mRNA; A375 cells, 6 and 24 hours",~-0.7
same,YAP1 mRNA z-score,"YAP1 mRNA; HT29 cells, six hours",3.16
same,YAP1 mRNA,YAP1 mRNA; most cell types in the Connectivity Map,unaffected
